Results on 2 compounds are retold here after patent publication US8877734B2, “Seleny-methyluracil compounds, radiosensitizer and pharmaceutical composition using them” (Kongju National University Industry-University Cooperation …, priority 2010, dated 2014).

The subject of this data set is Human lung cancer cell line H460. In words: Cytotoxicity test on cancer cells (water-soluble tetrazolium salt colorimetric assay). The format is cell-based. Conditions: for IC50: Homo sapiens, NCI-H460, H460 cells, compound alone without radiation, after a lapse of 72 hours, read-out: IC50 value, the concentration where 50% cells are killed; for cytotoxic effect when applied alone: cancer cell line H460, without the combined radiation treatment. As to the method: Human lung cancer cell line H460 was used in the present test. Firstly, the H460 cell line was cultured in RPMI 1640 medium with 100 U/mL of penicillin, […] of streptomycin and 10% FBS, under the condition of 37° C. and 5% CO2 atmosphere. The cultured cells were placed on a 96-well-plate at the initial cell density of about 2×10^3 cells. In about 24 hours, the cells on the 96-well-plate were treated with the compound 1 and the compound 7 at a designated concentration for 48 hours. The relative cell viability was quantitatively determined by a colorimetric assay using a water-soluble tetrazolium salt. Optical density at 450 nm was measured by an automatic micro plate reader. The results were represented in FIGS. 1 and 2 in the drawings attached to the present specification. As shown in the test example 1, FIG. 1 and FIG. 2, the lung cancer cell line (H460) was treated with the compound 1 (MeSe-T), then after a lapse of 72 hours, IC50 value thereof, that is the concentration where 50% cells are killed, were about 100 μM.

On to `O=c1[nH]c(=O)n([C@H]2CC(O)[C@@H](CO)O2)cc1C[Se]c1ccccc1` (stereo partly shown) [compound 7, 5-phenylselenyl-methyl-2′-deoxy uridine], for which the IC50 was approximately 500 µM and the “cytotoxic effect when applied alone” value is listed as “weak cytotoxic effect”.

Consider `C[Se]Cc1cn([C@H]2CC(O)[C@@H](CO)O2)c(=O)[nH]c1=O` (stereo partly shown) [compound 1, 5-methylselenyl-methyl-2′-deoxy uridine], for which the IC50 is approximately 100 µM and the “cytotoxic effect when applied alone” value is “weak cytotoxic effect”.
